The results in this text go back to PubChem BioAssay (NCI).

Molecules are shown by their SMILES. “And” between values parts separate entries of the source, which are not always exact repeats. Identical values can stand only once.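 Each compound was tested at five concentrations against cells in 96-well plates for 48 hours. GI50: concentration for 50% inhibition of growth. The concentration for full growth arrest is given as TGI.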 Where only a bound is given, the exact number is not on record here.

What all share (assay): NCI tumour cell line growth inhibition, 48 h
The subject of assay [1] is EKVX NSCLC.
The subject of assay [2] is HL-60(TB) leukemia.
Assay [3] deals with IGROV1 ovarian.
Assay [4] deals with MCF7 breast.
The subject of assay [5] is MOLT-4 leukemia.
Assay [6] relates to NCI-H226 lung.
Assay [7] has as its system OVCAR-5 ovarian.
Assay [8] concerns SK-MEL-2 melanoma.
In assay [9] the test system is SW-620 colon.
For assay [10], the system named is UACC-62 melanoma.

As to `CN(C)CCCCN1CCc2c(n(C)c3ccccc23)C1=O`, the TGI is 85.9 µM and > 100 µM in assay [1]; more than 100 µM in [2]; more than 100 µM in [3]; > 59.9 µM and 64.7 µM in assay [4]; more than 87.6 µM in assay [5]; more than 80.5 µM in assay [6]. The TGI in assay [7] is > 78.6 µM and 67.3 µM; in assay [8], 50.2 µM and 35.9 µM; in assay [9], > 81.6 µM and 63.9 µM; in [10], 54.3 µM and 31.8 µM. Moreover, in assay [7], the GI50 was 54.1 µM and 24.2 µM.

On to `CC/C=C\C[C@H](O)C/C=C1/C(=O)C=C[C@@H]1C/C=C\CCCC(=O)NC(C)C`, for which the GI50 in assay [1] is 4 µM; in [2], 2.67 µM; in [3], 2.94 µM; in [4], 2.18 µM; in assay [5], 2.72 µM; in [6] it was 2.31 µM. The GI50 in [7] was 4.55 µM; in [8], 2.52 µM; in assay [9], 3.16 µM; in assay [10], 1.77 µM. The TGI in assay [1] came to 15 µM; in assay [2] it was 9.1 µM; in assay [3] it was 10 µM; in assay [4], 13.9 µM; in assay [5], 11 µM; in [6], 4.74 µM. Further, the TGI is 16.6 µM in assay [7], 6.88 µM in [8], 10.8 µM in assay [9] and 4.22 µM in [10].

With `C=C1C(=O)O[C@H]2[C@H]1CC/C(COC(=O)C(=O)c1c[nH]c3ccccc13)=C\CC[C@@]1(C)O[C@@H]21`, the GI50 in [1] was 8.31 µM; in assay [2], 1.86 µM; in assay [3], 2.11 µM; in assay [4] it was 2.16 µM; in [5], 2.2 µM; in assay [6], 1.98 µM. Also, the GI50 in [7] was 2.35 µM; in assay [8] it was 1.63 µM; in [9], 3.09 µM; in [10], 1.89 µM. Further, the TGI was 20.7 µM in assay [1]; 4.67 µM in [2]; 4.39 µM in [3]; 8.83 µM in assay [4]; 7.3 µM in assay [5]; 3.89 µM in assay [6]. The TGI in assay [7] came to 6.42 µM; in assay [8], 3.78 µM; in [9], 16.6 µM; in assay [10] it was 4.29 µM.

As for `Cc1ccc(NC(c2ccccc2)c2ccc3cccnc3c2O)cc1` (stereo unspecified), the TGI in assay [1] stood at 15 µM; in assay [2], 11.7 µM; in assay [3] it was 14 µM; in [4], 16.2 µM; in assay [5] it was 17.3 µM; in assay [6], 8.4 µM. The TGI is 22.2 µM in assay [7], 21 µM in [8], more than 52.2 µM in [9] and 18.3 µM in [10].

For `CC(C)C[C@@H](NC(=O)[C@@H](Cc1ccccc1)NC(=O)c1cnccn1)B1O[C@H]2[C@H](O)[C@@H](C(=O)NCCCC[C@@H]3NC(=O)[C@@H](Cc4ccccc4)NC(=O)[C@H](CC(=O)O)NC(=O)CNC(=O)[C@H](CCCN=C(N)N)NC3=O)O[C@@H](CN)[C@H]2O1`, the GI50 in assay [1] was 0.0239 µM and 0.0171 µM; in [2], 0.0102 µM and 0.005 µM; in assay [3] it was 0.0312 µM and 0.0214 µM; in [4] it was 0.00413 µM and 0.005 µM; in [5], 0.00274 µM; in [6], 0.00278 µM. Also, the GI50 was 0.0135 µM and 0.0196 µM in assay [7]; 0.00702 µM and 0.005 µM in [8]; 0.00454 µM and 0.005 µM in assay [9]; 0.00439 µM and 0.005 µM in [10]. Moreover, the TGI in [1] is 0.568 µM and 0.545 µM; in [2], 0.0698 µM and 0.0743 µM; in assay [3], 0.254 µM and 1.03 µM; in [4], 0.789 µM; in [5] it was 0.00931 µM; in assay [6] it was 0.0077 µM. Also, the TGI in [7] was 0.0978 µM and 0.799 µM; in assay [8], 0.0604 µM and 0.0123 µM; in assay [9], 0.239 µM and 0.652 µM; in assay [10], 0.0408 µM and 0.014 µM.

Consider `CC(O)C1OC(O)C2OC(C)(C)OC12` (stereo unspecified), for which the TGI in assay [1], in assay [2], in assay [3], in assay [4], in [5] and in assay [6] was more than 100 µM in each case. In addition, the TGI in assay [7], in assay [8], in assay [9] and in assay [10] was more than 100 µM each time.

On to `COc1cc(/C=C(/C)[N+](=O)[O-])ccc1O`, for which the GI50 in assay [1] is 6.55 µM and 2.84 µM; in [2], 2.75 µM; in assay [3] it was 2.89 µM and 1.57 µM; in [4] it was 1.44 µM and 1.37 µM; in [5], 3.3 µM; in assay [6], 2.58 µM and 4.07 µM. For the same compound, the GI50 in assay [7] is 3.47 µM and 2.66 µM; in [8], 2.15 µM and 1.7 µM; in [9] it was 1.69 µM and 1.57 µM; in [10], 1.77 µM and 1.8 µM. The TGI in assay [1] was 18.7 µM and 14.6 µM; in assay [2] it was 7.01 µM; in [3], 8.54 µM and 5.14 µM; in assay [4], 3.39 µM and 2.9 µM; in [5], 9.14 µM; in [6], 6.96 µM and 14.2 µM. For the same compound, the TGI was 10.1 µM and 7.96 µM in assay [7]; 4.3 µM and 3.49 µM in assay [8]; 3.67 µM and 3.11 µM in [9]; 3.7 µM and 3.71 µM in assay [10].

Turning to `Oc1c(CN2CCC(N3CCOCC3)CC2)cc(Cc2cc(CN3CCC(N4CCOCC4)CC3)c(O)c3ncccc23)c2cccnc12`, the GI50 in assay [1] is 0.737 µM; in assay [2], 0.789 µM; in assay [3], 0.61 µM; in [4], 0.543 µM; in assay [5] it was 0.49 µM; in assay [6], 0.641 µM. Besides, the GI50 in [7] is 2.14 µM; in assay [8] it was 4.64 µM; in assay [9], 0.689 µM; in assay [10], 0.434 µM. The TGI in [1] was more than 100 µM; in assay [2], 3.71 µM; in assay [3], 48.2 µM; in assay [4], more than 100 µM; in [5], 12.1 µM; in assay [6] it was 4.75 µM. Further, the TGI was more than 100 µM in assay [7], 30.3 µM in assay [8], more than 100 µM in assay [9] and 5.29 µM in [10].
